# Experimental data as given in patent publication US20110039779A1, “IGF-1R BINDING PROTEINS AND ANTAGONISTS” (priority 2007, published 2011).
# Values joined by “and” are separate entries in the source; they are usually repeats but may differ in a detail not shown here. Equal entries are not always repeated. Where two headings read alike, the source gives them in different places.
# How the values were obtained:
# SW480 cells = format: cell-based
# Method: (§1) For cell growth/density studies, a mitochondrial activity assay was used, as exemplified by the following. Cells (SW480, MCF-7S8) were propagated in complete medium (DME: F12, 10% FCS (SW 480) or 5% FCS (MCF-7S8, P/S)), trypsinized, and seeded in 96 well plates as 10,000 cells/well in medium with 0.5% FCS. All wells in the periphery were omitted and only filled with medium. […] All treatments are made in triplicates. […] Treatment was continued for 48 hours (SW480 cells) or 72 hours (MCF-7S8 cells) before quantification of the cell density. Media was exchanged each day. Media and peptides were diluted in DMSO. When measuring cell density, the volume of each well was adjusted to […] Pre-diluted WST-1 (1 ml+1.5 ml DME:F12) was added as 25 μL to each well including background samples. Three wells with media only served as background controls. The cells were incubated for 90 min protected against light in an incubator.
# PKB/Akt = test: downstream signaling in L6 cells: PKB/Akt; format: cell-based; conditions: 3 nM IGF-1, read-out: PKB/Akt, IC50 for down regulation of the stimulation to the basal level
# Method: (§2) The tyrosine phosphorylation of IRS signaling (the 180 kDa band on a tyrosine phosphor Western blot) as well as activation of effectors MAPK 44 and 42 and PKB were analyzed by using antibodies specific for their active forms using methods substantially similar to those described in Example 14 of the '246 PCT application.
# (§3) The effect of select peptides on downstream signaling (MAPK44, MAPK42, PKB/Akt, IRS-1, and IGF-1R) was also measured by studying the signaling in L6 cells predominantly expressing IGF-1R and very limited insulin receptors. […] The antagonistic effect of the peptides can be seen to affect all the downstream signaling from the IGF-1R.
# MAPK44 = test: downstream signaling in L6 cells: MAPK44; format: cell-based; conditions: 3 nM IGF-1, read-out: MAPK44, IC50 for down regulation of the stimulation to the basal level
# Method: as §2, §3
# MAPK42 = test: downstream signaling in L6 cells: MAPK42; format: cell-based; conditions: 3 nM IGF-1, read-out: MAPK42, IC50 for down regulation of the stimulation to the basal level
# Method: as §2, §3
# IGF-IR = test: downstream signaling in L6 cells: IGF-IR; format: cell-based; conditions: 3 nM IGF-1, read-out: IGF-IR, IC50 for down regulation of the stimulation to the basal level
# Method: as §2, §3
# IRS-1 [1] = test: downstream signaling: IRS-1 tyrosine phosphorylation; format: cell-based; conditions: for IC50: L6 cells, 3 nM IGF-1, read-out: IRS-1, IC50 for down regulation of the stimulation to the basal level
# Method: as §2, §3
# MCF7 cells [2] = target: T1, MCF7 cells (Homo sapiens, UniProt P08069); test: antagonism assay in starved MCF7 cells, luminescence viability, 72 hrs; format: cell-based; conditions: Table 9
# Method: Additional binding and antagonism assays using candidate peptides were performed. […] Cell viability was determined by luminescence assay and IC50 was calculated using standard techniques.
# MiaPaCa cells [3] = test: gene expression changes in MiaPaCa cells (gene arrays); format: cell-based, human; conditions: IGF-1 (25 ng/ml) +/− ANT-429, 24 hours
# MiaPaCa cells [4] = test: MiaPaCa tumor growth inhibition in nude mice; format: in vivo
# Method: Nude mice were inoculated with MiaPaCa cells (one million cells in matrigel) on the flank and followed until tumors reached a volume of greater than 100 mm^3. […] Animals were injected by the subcutaneous route 4 times per week for 3 weeks and followed for an additional 2 weeks without injections. Tumors were measured twice weekly. Animals were sacrificed and the tumors excised, weighed and photographed.
# MCF-7S8 cells = MCF-7S8 cells (Homo sapiens, UniProt P08069); test: cell growth/density, mitochondrial activity assay (WST-1), MCF-7S8; format: cell-based; conditions: one experiment only
# Method: as §1
# IRS-1 [5] = test: IRS-1 phosphorylation in MCF7 cells (immunoprecipitation, Western blot); format: cell-based, human; conditions: 0.5 nM IGF-1, 10 minutes, peptides 30 μM
# Method: Preparation of whole-cell lysates, immunoprecipitation, and Western blot analysis. For qualitative IRS-1 phosphorylation analysis, MCF7 cells in monolayer cultures (about 80% of confluency) were used. […] After treatment, cells were rinsed twice with ice-cold PBS containing 0.2 mM PMSF and 1 mM Na3VO4 (all from SIGMA). Cells were scraped into the same buffer and pelleted by centrifugation at 200 g for 3 min. […] Cell lysates were cleared by centrifugation for 5 min at 14 000 g and the resulting supernatant was snap-frozen in EtOH-dry ice and stored at −80° C. The protein concentration was determined using the Dc Protein Assay Kit (Bio-Rad Laboratories).
# Immunoprecipitations were performed with pre-cleared lysates for 4 hours at […] using 0.3-0.5 mg of total protein with 1 μg of polyclonal anti-IRS-1 antibody (Upstate Biotechnology), and 25 μL of Protein A/agarose slurry (SIGMA). Agarose beads with immobilized proteins were washed 3 times with IP wash buffer (50 mM Tris pH 7.5 (GibcoBRL), 150 mM NaCl, 1 mM Na3VO4, 0.2 mM PMSF). […]
# Immunoprecipitates were subjected to SDS-PAGE on 4-15% Tris-HCl Ready Gels and transferred to Trans-Blot Transfer Medium nitrocellulose membranes (both from Bio-Rad Laboratories). […] Blots were exposed to an enhanced […] substrate (ECL Western Blotting Analysis System, Amersham Pharmacia Biotech). […]
# [6] = target: T2, His-tagged soluble recombinant human IGF-IR (srhIGF-1R-his) (Homo sapiens, UniProt P08069); test: ALPHAScreen competition binding assay, biotinylated hIGF-1; conditions: FIG. 10A
# T2 construct: The extra-cellular domain of IGF-1R was obtained as a recombinant protein from R&D Systems; purchased R&D Systems, Inc., Minneapolis, Minn
# Method: Binding Assays. […] Detection of the receptor ligand interaction was measured in an amplified luminescent proximity homogeneous assay (ALPHAScreen; BioSignal-Packard, Montreal). The assay was performed in 384-well Nunc™ white polystyrene microplates (Nalge Nunc International, Naperville, Ill.) with a final volume of 40 μL. […] Each concentration of competitor was assayed in duplicate. Non-specific binding was determined in the presence of 3×10^−5 M hIGF-1. The second step of the assay was to add acceptor beads and the incubation continued for 0.5 hr. The final step was to add donor beads and the incubation continued for an additional 1 hr. […] Primary data were background corrected, normalized to buffer controls and then expressed as % Specific Binding. The data were fit to a four-parameter non-linear regression analysis (y=min+(max-min)/(1+10̂((log IC50-x)*Hillslope))), which was used to determine IC50 values. The Z′-factor for this assay is greater than 0.7 (Z′=1-(3σ++3σ−)/|μ+−μ−|) and the signal-to-background (SB) ratio was between 40 and 70.
# MCF7 cells [7] = target: T1, MCF7 cells; test: cell assay (WST-1), antagonism of IGF-1, MCF7; format: cell-based; conditions: 5×10^−8 M IGF-1; 72 h; FIG. 10B
# Method: (§4) Cell Assays. MCF7 or MiaPaCa cells were plated in 96 well plates at a concentration of 3×10^3 cells/well in 75 μL of serum-free RPMI-1640 and incubated overnight at 37° C. Dilutions of the peptides were prepared in a separate working plate and 75 μL added to the cells. […] Plates were incubated for 48-72 hours at 37° C. Viability was measured by the addition of 10 μL WST-1/well (Roche) as per the manufacturer's instructions.
# The cells were treated as described in the materials and methods section. […] The data are presented as percent inhibition and to determine binding kinetic parameters data were fit to a four-parameter logistic equation.
# MiaPaCa cells [8] = test: cell assay (WST-1), antagonism of IGF-1, MiaPaCa; format: cell-based, human; conditions: 5×10^−8 M IGF-1; 72 h; FIG. 10C
# Method: as §4
# [9] = test system: SGBS adipocytes transfected with HIR-encoding DNA; test: 3H glucose incorporation (insulin agonist activity) in SGBS adipocytes; format: cell-based
# Method: Insulin increases uptake of ^3H glucose into adipocytes and its conversion into lipid. Incorporation of ^3H into the lipid phase was determined by partitioning of lipid phase into a scintillant mixture, which excludes water-soluble ^3H products. […] The results are expressed as increase relative to full insulin response.
# insulin receptor/IGF-1R = test: tyrosine phosphorylation of insulin receptor/IGF-1R in L6-hIR cells (Western blot); format: cell-based
# [10] = target: T3, IGF-1R on L6 (with mainly symmetric IGF-1R) (Rattus norvegicus, UniProt P24062); test: displacement of IGF-1 binding on L6 cells
# T3 construct: L6 cells predominantly expressing IGF-1R and very limited insulin receptors; endogenous in cells; host or cells: L6 cells
# [11] = test system: L6 hIR (with mainly hybrid IGF-1R/IR); test: displacement of IGF-1 binding on L6 hIR cells
# [12] = test system: IGF-1R, IRS-1, MAPK42/44 and PKB/Akt; test: IGF-1 induced phosphorylation (IGF-1R, IRS-1, MAPK42/44, PKB/Akt) in L6 and L6 hIR cells, summary in description; format: cell-based; conditions: read-out: phosphorylation of IGF-1R and MAPK42/44 in response to IGF-1 treatment, IC50
# Method: The activation of HIR or HIGF-1R in adipocytes was measured by stimulating the cells and studying the level of tyrosine phosphorylation (Western blot) of the insulin receptor/IGF-1R. […] The IGF-1R will be present in symmetric homodimer complex as well as in the heterodimer with half insulin receptor.
# as §2, §3
# [13] = read-out: IC50 in SW480 (M) in presence of IGF-1/alone: in presence of IGF-1, first value of the cell: concentration needed to blunt the effect of 10 nM IGF-1, cells in words only = effect as reported, 48 hours
# T1 sequence (P08069 31-736): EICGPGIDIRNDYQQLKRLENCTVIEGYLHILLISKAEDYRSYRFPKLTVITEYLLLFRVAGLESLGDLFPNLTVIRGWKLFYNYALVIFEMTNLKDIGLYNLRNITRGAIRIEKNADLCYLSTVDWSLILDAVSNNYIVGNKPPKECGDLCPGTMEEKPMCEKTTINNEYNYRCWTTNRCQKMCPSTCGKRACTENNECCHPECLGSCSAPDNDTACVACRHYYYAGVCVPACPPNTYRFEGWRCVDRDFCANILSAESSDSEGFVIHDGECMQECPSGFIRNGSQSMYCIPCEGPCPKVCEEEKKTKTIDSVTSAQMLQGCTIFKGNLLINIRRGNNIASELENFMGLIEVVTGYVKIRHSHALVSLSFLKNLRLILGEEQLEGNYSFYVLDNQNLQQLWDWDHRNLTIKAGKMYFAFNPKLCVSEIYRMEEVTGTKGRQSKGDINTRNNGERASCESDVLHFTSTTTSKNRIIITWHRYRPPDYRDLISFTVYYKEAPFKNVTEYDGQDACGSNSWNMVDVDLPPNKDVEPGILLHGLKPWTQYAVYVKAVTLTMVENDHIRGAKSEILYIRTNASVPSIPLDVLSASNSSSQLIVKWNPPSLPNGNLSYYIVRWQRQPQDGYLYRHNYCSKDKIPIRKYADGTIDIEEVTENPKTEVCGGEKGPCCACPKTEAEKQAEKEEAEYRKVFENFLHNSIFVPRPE
# T3 sequence (P24062 31-737 limits assumed): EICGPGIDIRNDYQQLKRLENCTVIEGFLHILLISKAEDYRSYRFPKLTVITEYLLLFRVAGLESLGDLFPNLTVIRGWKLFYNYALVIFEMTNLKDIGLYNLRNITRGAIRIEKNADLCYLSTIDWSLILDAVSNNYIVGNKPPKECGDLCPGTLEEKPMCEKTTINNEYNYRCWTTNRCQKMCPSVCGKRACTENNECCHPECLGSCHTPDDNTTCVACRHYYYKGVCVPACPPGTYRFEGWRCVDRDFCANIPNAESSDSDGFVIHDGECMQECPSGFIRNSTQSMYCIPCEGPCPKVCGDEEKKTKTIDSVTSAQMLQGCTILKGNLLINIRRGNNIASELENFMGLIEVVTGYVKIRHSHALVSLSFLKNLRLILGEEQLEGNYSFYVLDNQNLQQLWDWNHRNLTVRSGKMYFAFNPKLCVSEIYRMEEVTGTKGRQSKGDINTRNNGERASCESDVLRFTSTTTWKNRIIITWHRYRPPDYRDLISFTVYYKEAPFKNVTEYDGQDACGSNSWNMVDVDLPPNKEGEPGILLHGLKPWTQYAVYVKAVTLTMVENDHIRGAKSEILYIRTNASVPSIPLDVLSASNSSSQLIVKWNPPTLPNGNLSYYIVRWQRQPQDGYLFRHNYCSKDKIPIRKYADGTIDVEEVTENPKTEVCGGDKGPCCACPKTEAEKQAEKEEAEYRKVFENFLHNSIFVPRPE
# T3 sequence (P24062 742-1370 limits assumed): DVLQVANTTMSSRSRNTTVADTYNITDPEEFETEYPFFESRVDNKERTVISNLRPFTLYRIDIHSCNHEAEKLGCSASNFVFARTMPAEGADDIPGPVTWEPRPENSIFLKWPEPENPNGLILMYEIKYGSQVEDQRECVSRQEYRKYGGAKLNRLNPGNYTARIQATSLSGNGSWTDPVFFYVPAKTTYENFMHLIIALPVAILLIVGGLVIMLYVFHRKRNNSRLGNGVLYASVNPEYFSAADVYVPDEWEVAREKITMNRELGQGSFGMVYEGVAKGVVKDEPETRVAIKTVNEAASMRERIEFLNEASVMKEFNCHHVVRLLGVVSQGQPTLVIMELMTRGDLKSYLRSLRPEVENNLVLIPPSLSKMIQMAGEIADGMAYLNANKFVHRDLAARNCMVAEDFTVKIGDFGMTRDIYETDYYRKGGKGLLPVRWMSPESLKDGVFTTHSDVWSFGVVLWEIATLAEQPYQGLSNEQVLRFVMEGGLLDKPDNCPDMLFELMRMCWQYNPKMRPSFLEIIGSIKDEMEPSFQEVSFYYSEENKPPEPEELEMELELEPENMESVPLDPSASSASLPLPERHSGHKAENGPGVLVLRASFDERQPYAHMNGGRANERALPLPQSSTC
# Chain of L6 hIR (with mainly hybrid IGF-1R/IR) (P24062 31-737 limits assumed): as the sequence (P24062 31-737 limits assumed) above
# Chain of L6 hIR (with mainly hybrid IGF-1R/IR) (P24062 742-1370 limits assumed): as the sequence (P24062 742-1370 limits assumed) above
# Chain of MCF-7S8 cells (P08069 31-736): as the sequence (P08069 31-736) above
# T2 sequence (P08069 31-736 limits assumed): as the sequence (P08069 31-736) above
# T2 sequence (P08069 741-935 limits assumed): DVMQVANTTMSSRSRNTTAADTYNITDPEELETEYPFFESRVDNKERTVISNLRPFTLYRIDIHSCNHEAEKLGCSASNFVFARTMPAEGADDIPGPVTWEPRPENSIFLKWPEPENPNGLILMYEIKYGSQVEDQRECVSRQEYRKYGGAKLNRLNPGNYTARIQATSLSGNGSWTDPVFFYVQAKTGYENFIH
sequence,measurement,setting,value
DFYGCLLDLSLGVPSLGWRRRCITA [Peptide F429],IC50,"SW480 cells; read-out: IC50, inhibition of IGF-1 (10 nM)-induced proliferation of SW480 cells, experiment 13717-019",5e-07 M
same,IC50,"SW480 cells; read-out: IC50, inhibition of IGF-1 (10 nM)-induced proliferation of SW480 cells, experiment 13717-027",1e-06 M
same,IC50,PKB/Akt,100 nM
same,IC50,MAPK44,100 nM
same,IC50,MAPK42,300 nM
same,IC50,IGF-IR,50 nM
same,potency for inhibiting down stream signaling through IRS-1 upon IGF-1 stimulation,"IRS-1 [1]; +/−3 nM IGF-1, FIG. 7 and FIG. 8",potency of F429 is higher than F138
same,IC50,IRS-1 [1],40 nM
same,Activity,MCF7 cells [2],Antagonist
same,changes in apoptosis gene expression,MiaPaCa cells [3],modulate apoptosis genes
same,"complete remission, animals",MiaPaCa cells [4]; […] (50 ug/injection),one
same,animals responding to treatment,"MiaPaCa cells [4]; […] (50 ug/injection), subcutaneous 4 times per week for 3 weeks",Two out of five
same,tumor growth,"MiaPaCa cells [4]; group printed as 15 mg/kg (design: 300 ug/injection, 12 mg/kg), subcutaneous 4 times per week for 3 weeks",significant inhibition of growth
same,"complete remission, animals","MiaPaCa cells [4]; group printed as 15 mg/kg, subcutaneous 4 times per week for 3 weeks",one
ESYGDCRDRPCGDAPNFYDWFVQQASE [Peptide F270],IC50 in SW480 (M) in presence of IGF-1/alone: in presence of IGF-1,"SW480 cells; first value of the cell: concentration needed to blunt the effect of 10 nM IGF-1, cells in words only = effect as reported, 48 hours",agonistic?
same,IC50,SW480 cells; [13],2e-06 M
same,effect on MCF-7,MCF-7S8 cells,agonistic effects
SFYSCLESLVNGPAEKSRGQWDGCRK [Peptide F250],IC50,SW480 cells; [13],2e-06 M and 1e-06 M
same,IGF-1-induced phosphorylation of IRS-1,IRS-1 [5],inhibited
same,competition of IGF-1 binding,[6],competes IGF-1 binding
same,antagonism of IGF-1 activity in MCF-7 cells,MCF7 cells [7],antagonism of IGF-1 activity in MCF-7 cells
same,antagonism of IGF-1 activity in MiaPaCa cells,MiaPaCa cells [8],antagonism of IGF-1 activity in MiaPaCa cells
SFYSCLESLVQGPAEKSRGQWEGCRK [Peptide F293],IC50,"SW480 cells; read-out: IC50 in SW480 (M) in presence of IGF-1/alone: alone, second value of the cell: concentration needed to inhibit basal level in 0.5% FCS",1e-07 M
same,"inhibition of basal growth of SW480, doses",SW480 cells; without IGF-1,inhibition of basal growth was observed
same,effect on glucose uptake induced by insulin or IGF-1,"[9]; SGBS adipocytes, FIGS. 1A and 1B",neither peptide F138 nor peptide F293 has any substantial effect on glucose uptake induced by insulin or IGF-1
same,doses not affecting glucose uptake in response to insulin/IGF-1,[9]; SGBS cells,< 5 µM
same,inhibition of IGF-1 induced versus insulin induced phosphorylation,insulin receptor/IGF-1R,more effective on IGF-1 induced phosphorylation as compared to insulin induced phosphorylation
same,effect on insulin stimulated tyrosine phosphorylation,"insulin receptor/IGF-1R; 2 μM peptide, 10 min",marginal effect
same,effect on tyrosine phosphorylation by IGF-1,"insulin receptor/IGF-1R; 2 μM peptide, 10 min",inhibited
same,IC50,PKB/Akt,> 1000 nM
same,IC50,MAPK44,500 nM
same,IC50,MAPK42,1000 nM
same,IC50,IGF-IR,500 nM
same,effect on IGF-1 stimulated IRS-1 phosphorylation,"IRS-1 [1]; FIG. 4, 10 min",clearly inhibits the IGF-1 stimulated IRS-1 phosphorylation
same,IC50,IRS-1 [1],> 1000 nM
same,concentration displacing IGF-1 binding to IGF-1R on L6,[10],150 nM
same,concentration displacing IGF-1 binding in L6 hIR,[11],150 nM
same,IC50,[12],500 nM
